Laboratory results published in patent US12350194B1, “Topical ocular delivery of fluids with controlled mass dosing and wireless communication” (Bausch + Lomb Ireland Limited, priority 2018, dated 2025).

Legend:
[1] = tested on: patients with primary open angle glaucoma; test: Trial 2: intraocular pressure by Goldmann applanation tonometry; type: in vivo, human; settings: AcuStream vs standard eye dropper; Wilcoxon Ranked Sum test, p=0.3447
Experimental: Trial 2 compared the efficacy (dose volume equivalence) of 0.005% w/v latanoprost for intraocular pressure reduction when delivered via AcuStream™ (pre-trial calibration volume=9.2 μl) versus the standard eye dropper for topical drug delivery (approximate volume=30 μl).
Patients included in Trial 2 have previously been diagnosed with primary open angle glaucoma on the basis of intraocular pressure and visual field testing, fundus examination or optical coherence tomography (OCT) data and are currently on prostaglandin analog medical therapy. Patients with corneal abnormalities that would interfere with accurate IOP measurements with applanation tonometry, use of an oral or topical ophthalmic steroids within the past 14 days from screening date, any active ocular surface or anterior segment disease, or progressive field loss during the past year were excluded from the study. Thirteen men and five women participated in the trial. […]
After performing slit lamp examinations on each patient to verify eligibility and obtaining informed consent, intraocular pressure (IOP) was measured by a sole experienced examiner who was blind to the randomized conditions. […]
Latanoprost solution was administered by a sole ophthalmologist to both eyes of each patient, based on the pre-determined randomized condition.

eye of subjects = test: Presbyopia: pupil diameter after self-administered pilocarpine micro-dose; type: in vivo, human
Experimental: A 10 μl micro-dose of a 1% pilocarpine solution was self-administered using an electromagnetic actuated fluid delivery device, e.g., as described above, by three subjects to their own eye. The age range of the subjects was 52 years to 68 years, and all subjects were male. The pilocarpine micro-dose was self-administered by the subjects.
Baseline, pre-dose values of pupil diameter and near visual acuity in both eyes prior to dosing was measured for all subjects, and then following the baseline measurements, the subjects were dosed in only one eye (the eye with the poorer visual acuity) with the micro-dose pilocarpine solution. Approximately 45 to 60 minutes after dosing, pupil diameter and near visual acuity were again tested. Near visual acuity was measured using a Snellen card at a distance of 40 cm. A tabulation of results is given below in Table A.

| Compound | difference in IOP reduction between groups [1] | miotic effect in non-dosed eye (eye of subjects) |
| --- | --- | --- |
| CC(C)OC(=O)CCC/C=C\C[C@@H]1[C@@H](CC[C@@H](O)CCc2ccccc2)[C@H](O)C[C@@H]1O [latanoprost] | no statistically significant differences |  |
| CC[C@@H]1C(=O)OC[C@@H]1Cc1cncn1C [pilocarpine] |  | no miotic effect |
